The text below walks through data of patent publication US9884839B2, “Inhibitors of 17Beta-hydroxysteroid dehydrogenases type 1 and type 2” (ElexoPharm GmbH, priority 2014, dated 2018).

What all share (assay type): biochemical
For one experiment, the target named is T1, human 17β-HSD1 (Homo sapiens, UniProt P14061).
T1 construct: For the partial purification of 17β-HSD1, the cytosolic fraction was precipitated with ammonium sulfate; from tissue; host or cells: human placenta, cytosolic fraction, ammonium sulfate precipitate
T1 sequence (P14061 1-328): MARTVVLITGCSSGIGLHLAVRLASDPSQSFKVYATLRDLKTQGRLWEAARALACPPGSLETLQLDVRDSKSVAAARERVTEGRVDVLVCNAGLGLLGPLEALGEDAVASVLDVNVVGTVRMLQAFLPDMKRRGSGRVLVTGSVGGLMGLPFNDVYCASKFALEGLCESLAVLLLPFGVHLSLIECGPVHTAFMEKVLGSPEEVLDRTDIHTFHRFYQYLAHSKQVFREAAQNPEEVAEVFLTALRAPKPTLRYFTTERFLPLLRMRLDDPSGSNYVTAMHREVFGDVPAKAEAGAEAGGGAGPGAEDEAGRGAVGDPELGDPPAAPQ
Kind of experiment: Inhibition of human 17β-HSD1 (conversion of [3H]-E1 to E2, HPLC radioflow detection). To be noted: for inhibition at 1 µM: read-out: % inhibition h17β-HSD1 @ 1 μM; for IC50: read-out: IC50 [nM] h17β-HSD1; for inhibition at 0.01 µM: read-out: % inhibition h17β-HSD1 @ 10 nM.

The target in a further experiment is T2, human 17β-HSD2 (Homo sapiens, UniProt P37059).
T2 construct: 17β-HSD2 was obtained from the microsomal fraction; from tissue; host or cells: human placenta, microsomal fraction
T2 sequence (P37059 1-387): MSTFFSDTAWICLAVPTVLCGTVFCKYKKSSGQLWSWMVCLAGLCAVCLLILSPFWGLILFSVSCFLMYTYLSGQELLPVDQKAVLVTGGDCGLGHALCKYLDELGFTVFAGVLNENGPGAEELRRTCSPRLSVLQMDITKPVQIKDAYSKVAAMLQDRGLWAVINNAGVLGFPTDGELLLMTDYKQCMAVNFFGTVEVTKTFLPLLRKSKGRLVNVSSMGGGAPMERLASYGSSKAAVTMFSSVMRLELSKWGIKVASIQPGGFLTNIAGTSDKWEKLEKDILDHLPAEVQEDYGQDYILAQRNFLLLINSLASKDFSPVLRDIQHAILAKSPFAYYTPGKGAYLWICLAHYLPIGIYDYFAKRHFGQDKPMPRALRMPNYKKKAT
As to the kind of experiment: Inhibition of human 17β-HSD2 (conversion of [3H]-E2 to E1). The following applies: for inhibition at 0.01 µM: read-out: % inhibition h17β-HSD2 @ 10 nM.

For a further experiment, the target named is T3, mouse 17β-HSD2 (Mus musculus, UniProt P51658).
T3 construct: The pellet fractions containing the microsomal 17β-HSD2 were used for the determination of E1 formation; from tissue; host or cells: mouse liver, microsomal fraction
T3 sequence (P51658 1-381): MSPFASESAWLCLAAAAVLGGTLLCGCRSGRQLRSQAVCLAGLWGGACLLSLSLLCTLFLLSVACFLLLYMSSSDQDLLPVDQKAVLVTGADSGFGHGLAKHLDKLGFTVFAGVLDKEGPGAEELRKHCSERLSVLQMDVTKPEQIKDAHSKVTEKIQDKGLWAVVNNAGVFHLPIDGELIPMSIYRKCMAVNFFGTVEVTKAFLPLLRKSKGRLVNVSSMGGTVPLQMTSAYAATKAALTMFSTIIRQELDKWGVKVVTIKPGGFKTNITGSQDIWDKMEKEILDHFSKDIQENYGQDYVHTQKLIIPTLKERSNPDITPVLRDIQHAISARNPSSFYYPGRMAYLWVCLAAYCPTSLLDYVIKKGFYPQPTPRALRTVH
Kind of experiment: Inhibition of mouse 17β-HSD2 (liver microsomal fraction). To be noted: read-out: % inhibition m17β-HSD2 @ 50 nM.

What is called inhibition is the relative decrease from the control value, in per cent. A word on the IC50: it is the concentration at which inhibition is half-maximal.

Where two headings read alike, the source gives them in different places.

Protocol for human 17β-HSD2: Fresh human placenta was homogenized, and cytosolic fraction and microsomes were separated by differential centrifugation at 1,000 g, 10,000 g and 150,000 g.
(§1) The conversion rate was calculated after analysis of the resulting chromatograms according to the following equation: % conversion=[% E1/(% E1+% E2)]×100
Protocol for mouse 17β-HSD2: Microsomal 17β-HSD2 fractions were obtained from mouse or rat liver. Fresh liver tissues were processed as described for the human placental 17β-HSD2 preparation. The pellet fractions containing the microsomal 17β-HSD2 were used for the determination of E1 formation.
as §1

Turning to `O=C(c1cccc(O)c1)c1ccc(-c2ccc(F)cc2F)s1` [A, reference compound], the inhibition at 1 µM at human 17β-HSD1 amounted to 32%.

As to `O=C(c1ccc(-c2ccncc2)s1)c1c(F)ccc(O)c1F` [Compound 8, (2,6-Difluoro-3-hydroxy-phenyl)-(5-pyridin-4-yl-thiophen-2-yl)-methanone], the inhibition at 1 µM at human 17β-HSD1 is 27%; at human 17β-HSD2 (read-out: % inhibition h17β-HSD2 @ 1 μM), 49%.

On to `CC(C)Oc1ccc(-c2ccc(C(=O)c3c(F)ccc(O)c3F)s2)cc1C#N` [Compound 18, 5-[5-(2,6-Difluoro-3-hydroxy-benzoyl)-thiophen-2-yl]-2-isopropoxy-benzonitrile], for which the IC50 was 8 nM on human 17β-HSD1 and 19 nM on human 17β-HSD2 (read-out: IC50 [nM] h17β-HSD2).

Regarding `COc1c(C)cc(-c2ccc(C(=O)c3c(F)ccc(O)c3F)s2)cc1Cl` [Compound 26, [5-(3-Chloro-4-methoxy-5-methyl-phenyl)-thiophen-2-yl]-(2,6-difluoro-3-hydroxy-phenyl)-methanone], the IC50 at human 17β-HSD1 (human placental cytosolic enzyme, E1 500 nM, NADH, Tables 1, 4-11) was 0.4 nM.

Consider `Cc1cc(-c2ccc(C(=O)c3c(F)ccc(O)c3F)s2)cc(Cl)c1O` [Compound 27, [5-(3-Chloro-4-hydroxy-5-methyl-phenyl)-thiophen-2-yl]-(2,6-difluoro-3-hydroxy-phenyl)-methanone], for which, at human 17β-HSD1, the IC50 turned out to be 0.2 nM.

Consider `COc1ccc(-c2ccc(C(=O)c3cc(F)c(F)c(O)c3F)s2)cc1` [Compound 51, (5-(4-Methoxyphenyl)thiophen-2-yl)(2,4,5-trifluoro-3-hydroxyphenyl)methanone], for which the inhibition at 0.01 µM at human 17β-HSD1 is 47%; at human 17β-HSD2, 87%.

For the compound `COc1cccc(-c2ccc(C(=O)c3cc(F)c(F)c(O)c3F)s2)c1` [Compound 52, (5-(3-Methoxyphenyl)thiophen-2-yl)(2,4,5-trifluoro-3-hydroxyphenyl)methanone], the inhibition at 0.01 µM on human 17β-HSD1 came out at 75%; at human 17β-HSD2 it was 47%. The inhibition at 0.05 µM on mouse 17β-HSD2 came out at 15%.

Turning to `COc1ccccc1-c1ccc(C(=O)c2cc(F)c(F)c(O)c2F)s1` [Compound 53, (5-(2-Methoxyphenyl)thiophen-2-yl)(2,4,5-trifluoro-3-hydroxyphenyl)methanone], the inhibition at 0.01 µM at human 17β-HSD1 worked out at 81%; on human 17β-HSD2 it was 96%. Besides, the inhibition at 0.05 µM at mouse 17β-HSD2 was determined as 34%.

With `CC(=O)Nc1cccc(-c2ccc(C(=O)c3cc(F)c(F)c(O)c3F)s2)c1` [Compound 54, N-(3-(5-(2,4,5-Trifluoro-3-hydroxybenzoyl)thiophen-2-yl)phenyl)acetamide], the inhibition at 0.01 µM on human 17β-HSD1 was 31%; at human 17β-HSD2, 89%. Moreover, on mouse 17β-HSD2, the inhibition at 0.05 µM was 30%.

Regarding `Nc1ccccc1-c1ccc(C(=O)c2cc(F)c(F)c(O)c2F)s1` [Compound 55, (5-(2-Aminophenyl)thiophen-2-yl)(2,4,5-trifluoro-3-hydroxyphenyl)methanone], the inhibition at 0.01 µM on human 17β-HSD1 came out at 12%; at human 17β-HSD2 it was 68%. The inhibition at 0.05 µM on mouse 17β-HSD2 was determined as 23%.

Take `O=C(c1ccc(-c2ccccc2)s1)c1cc(F)c(F)c(O)c1F` [Compound 56, (5-Phenylthiophen-2-yl)(2,4,5-trifluoro-3-hydroxyphenyl)methanone]: the inhibition at 0.01 µM on human 17β-HSD1 amounted to 71%; at human 17β-HSD2, 93%.

In the case of `Cc1ccc(-c2ccc(C(=O)c3cc(F)c(F)c(O)c3F)s2)cc1N` [Compound 57, (5-(3-Amino-4-methylphenyl)thiophen-2-yl)(2,4,5-trifluoro-3-hydroxyphenyl)methanone], the inhibition at 0.01 µM was 14% on human 17β-HSD1 and 60% at human 17β-HSD2.

For the compound `Nc1cc(-c2ccc(C(=O)c3cc(F)c(F)c(O)c3F)s2)ccc1O` [Compound 59, (5-(3-Amino-4-hydroxyphenyl)thiophen-2-yl)(2,4,5-trifluoro-3-hydroxyphenyl)methanone], the inhibition at 0.01 µM stood at 48% on human 17β-HSD1 and 68% at human 17β-HSD2. The inhibition at 0.05 µM at mouse 17β-HSD2 was found to be 27%.

`COc1ccc(-c2ccc(C(=O)c3cc(F)c(F)c(O)c3F)s2)cc1N` [Compound 60, (5-(3-Amino-4-methoxyphenyl)thiophen-2-yl)(2,4,5-trifluoro-3-hydroxyphenyl)methanone]: the inhibition at 0.01 µM on human 17β-HSD1 was determined as 13%; at human 17β-HSD2, 51%. The inhibition at 0.05 µM at mouse 17β-HSD2 was determined as 23%.

For the compound `O=C(c1ccc(-c2ccc3[nH]ccc3c2)s1)c1cc(F)c(F)c(O)c1F` [Compound 61, (5-(1H-Indol-5-yl)thiophen-2-yl)(2,4,5-trifluoro-3-hydroxyphenyl)methanone], the inhibition at 0.01 µM on human 17β-HSD1 was 48%; on human 17β-HSD2, 68%. In addition, the inhibition at 0.05 µM on mouse 17β-HSD2 came to 60%.

Take `CC(=O)Nc1ccc(-c2ccc(C(=O)c3cc(F)c(F)c(O)c3F)s2)cc1` [Compound 64, N-(4-(5-(2,4,5-trifluoro-3-hydroxybenzoyl)thiophen-2-yl)phenyl)acetamide]: the inhibition at 0.01 µM at human 17β-HSD1 stood at 0%; on human 17β-HSD2 it was 62%. In addition, the inhibition at 0.05 µM on mouse 17β-HSD2 is 28%.

For `O=C(c1ccc(-c2cccnc2)s1)c1cc(F)c(F)c(O)c1F` [Compound 65, (5-(Pyridin-3-yl)thiophen-2-yl)(2,4,5-trifluoro-3-hydroxyphenyl)methanone], the inhibition at 0.01 µM stood at 15% on human 17β-HSD1 and 62% at human 17β-HSD2.

With `O=C(c1ccc(-c2ccc3cccnc3c2)s1)c1cc(F)c(F)c(O)c1F` [Compound 66, (5-(Quinolin-7-yl)thiophen-2-yl)(2,4,5-trifluoro-3-hydroxyphenyl)methanone], the inhibition at 0.01 µM turned out to be 22% at human 17β-HSD1 and 83% at human 17β-HSD2.

Turning to `O=C(c1ccc(-c2ccc3[nH]cnc3c2)s1)c1cc(F)c(F)c(O)c1F` [Compound 67, (5-(1H-Benzo[d]imidazol-5-yl)thiophen-2-yl)(2,4,5-trifluoro-3-hydroxyphenyl)methanone], the inhibition at 0.01 µM on human 17β-HSD1 was 30%; on human 17β-HSD2, 86%.

As to `O=C(c1ccc(-c2cccc(O)c2)s1)c1cc(F)c(F)c(O)c1F` [Compound 69, (5-(3-Hydroxyphenyl)thiophen-2-yl)(2,4,5-trifluoro-3-hydroxyphenyl)methanone], the inhibition at 0.01 µM on human 17β-HSD1 was 72%; at human 17β-HSD2, 95%. In addition, the inhibition at 0.05 µM at mouse 17β-HSD2 was determined as 32%.

Take `O=C(c1ccc(-c2ccccc2O)s1)c1cc(F)c(F)c(O)c1F` [Compound 70, (5-(2-Hydroxyphenyl)thiophen-2-yl)(2,4,5-trifluoro-3-hydroxyphenyl)methanone]: the figures for the inhibition at 0.01 µM on human 17β-HSD1 and on human 17β-HSD2 were 19% and 100%, respectively.

In the case of `Cc1ccc(C(=O)c2cc(F)c(F)c(O)c2F)s1` [Compound 73, (5-Methylthiophen-2-yl)(2,4,5-trifluoro-3-hydroxyphenyl)methanone], the inhibition at 0.1 µM on human 17β-HSD1 (read-out: % inhibition h17β-HSD1 @ 100 nM, compound 100 nM) is 9.1%.

With `NS(=O)(=O)Oc1ccc(-c2ccc(C(=O)c3cc(F)c(F)c(O)c3F)s2)cc1` [Compound 74, 4-(5-(2,4,5-Trifluoro-3-hydroxybenzoyl)thiophen-2-yl)phenyl sulfamate], the inhibition at 0.01 µM on human 17β-HSD1 came to 20%; on human 17β-HSD2 it was 72%.

Regarding `COc1c(Cl)cc(-c2ccc(C(=O)c3c(Cl)ccc(O)c3F)s2)cc1Cl` [Compound 77, (6-Chloro-2-fluoro-3-hydroxyphenyl)(5-(3,5-dichloro-4-methoxyphenyl)thiophen-2-yl)methanone], the inhibition at 0.01 µM came to 100% on human 17β-HSD1 and 45% on human 17β-HSD2.

`Nc1cccc(-c2ccc(C(=O)c3cccc(O)c3)s2)c1` [F, reference compound]: the inhibition at 1 µM on human 17β-HSD1 was 77%; on human 17β-HSD2 (read-out: IC50 [nM] or % inhibition h17β-HSD1 (second column so headed, Table 6): % @ 1 μM) it was 68%.
